Measured values published in patent US20030215788A1, “Cysteine thiol-protected peptides for use in immunoassays” (priority 1989, published 2003).
Non-standard residues stand in square brackets, D forms with d. No end group written: not given here. Cys∗ = not defined here

Key:
Format in all cases: binding, human
Antibodies to HIV-2 = experiment: EIA of dilutional series of HIV-2 positive sera
Procedure: Alternative methods of testing immunologic cross-reactivity were also used. In one such method L5 Peptides 39 and 39GC were tested by ELISA as previously described in U.S. Pat. No. 4,629,783. Briefly, stock solutions of peptides 39 and 39-GC were prepared in 6M Gu-HCl. Working dilutions of 20 µg/ml and 6 μg/ml respectively were prepared by dilution of stock solution 0 with 0.05M carbonate/bicarbonate buffer, pH 9.5. Wells of microtiter plates were filled with 100 μl of the working dilution of the peptides and allowed to stand overnight at room temperature. Coating solution was removed and 300 μl of blocking solution supra containing 0.5M ethanolamine was added for 1 hr. at room temperature. Blocking solution was removed and the plates were used immediately or allowed to dry and stored for later use.
Plasma samples were diluted (See Table 1) in sample dilution buffer (above) and 100 μl was added to individual wells. Samples were incubated for 30 min. at 37° C., then removed and the wells were washed six times with 0.15M NaCl, 0.05% Tween 20. One hundred microliters of goat antihuman Ig-horseradish peroxidase conjugate diluted in citrate buffer, pH 7.0, 1% normal goat serum was added to each well for 30 min at 37° C. prior to washing six times as above. The ELISA assay was developed by adding 100 μl/well of substrate solution (80 μg/ml tetramethyl benzidine, 0.0015% hydrogen peroxide in citrate/phosphate buffer, pH 6.0) for 30 min. at room temperature. Reactions were stopped with the addition of 100 μl of H2SO4 per well, and the ratio of the optical density at 450 nm to 630 nm was determined by an automated ELISA reader. The cutoff value for a positive result was set at 0.225 Absorbance Units above the average absorbance obtained for three known negative samples.
The immunoreactivity of HIV-2 peptides synthesized with protected cysteine thiol groups was determined. […] EIAs were performed as described above using viral lysates of HIV-1 and HIV-2 and peptides 39GC (HIV-1) and 41-2-3GC. Reactivity was determined for dilutions of two HIV-2 positive sera, F504282, obtained from a patient in New York, and “GOM,” provided by the Institut Pasteur.
The assays were EIAs performed generally as described above with varying dilutions of HIV-2 positive serum specimens.

[1] = system: antibodies to HTLV-I and/or HTLV-II; experiment: membrane concentration immunoassay with peptide 121-1GC1 on suspected HTLV-I/II sera; settings: for Reactivity with deprotected peptide (color grade): 80 μg peptide/5 mg bead/550 μl
Procedure: Serum or plasma samples (40 μl) were diluted 1:10 in dilution buffer (10% heat inactivated normal goat serum, 1% dextran sulfate, 0.2% Tween 20, 2.5% nonfat dry milk, 15 ppm Kathon CG, 0.005% antifoam A, in 20 mM sodium citrate buffer, pH 7.4). Diluted specimen was added to the surface of the membrane and allowed to absorb completely. After waiting 2 min. from the time of specimen addition, 1 ml of wash buffer (0.01M Tris-buffered saline, pH 6.0, 0.05M NaCl, 0.005M MgCl2, 0.1% sodium azide, 10 μg/ml nitro blue tetrazolium, 0.5M potassium thiocyanate) was added and allowed to completely absorb through the membrane. About 0.150 ml (3 drops) of goat anti-human Ig-alkaline phosphatase conjugate diluted in 10 mM phosphate buffered saline, pH 7.4, 0.2% goat gamma globulin, 1% bovine serum albumin, 1 mM MgCl2, 0.1 mM ZnCl2 was added to the membrane and allowed to absorb completely. The membrane was washed twice as above (2 ml) and about 0.150 ml (3 drops) of substrate (1M 2-amino-2-methyl-1-propanol, pH 10.3, 5 mg/ml 3-indoxyl phosphate) was added and allowed to absorb completely. After about 5 min. about 1 ml of 0.5M EDTA, pH 7.4, was passed through the membrane to stop the reaction. After the stop solution was completely absorbed the units were read visually or semi-quantitatively by reflectance.
A wide variety of positive, negative, EIA positive/western blot a typical and immune sensitized specimens have been tested with the preferred peptide 39 analog, peptide 39-GC, as the test antigen.
Results of assays with peptide 121-1GC1 were compared to those obtained with other HTLV-I/II tests, such as the polymerase chain reaction (PCR), radioimmunoprecipitation (RIP), Western blot (WB), and viral lysate EIAS. The procedure as described in Example II was used for peptide 121-1GC1, except that two drops of samples were used and the conjugate was used at a two-fold higher concentration. The assays were performed with 10 serum samples suspected of containing antibodies to HTLV-I and/or HTLV-II. The PCR assay for HTLV-II was performed generally according to PCR Technology, Principles and Applications for DNA Amplification, ed. H. A. Ehrlich, Stockton Press, N.Y. (1989), incorporated herein by reference.
In other experiments, screening of the HTLV-I peptide in a variety of forms against a serum panel of suspected HTLV-I/II positive individuals yielded inconclusive results when compared to results obtained by RIP, Western blot, and commercially available HTLV-I EIA assays.

Antibodies to HTLV-I = experiment: HTLV-I peptides on latex microparticles tested for reactivity with control sera; settings: Serum Sample 40359, HTLV-I EIA positive control, undiluted; 50 μg peptide/5 mg beads/550 μl

Cys-Gly-Gly-Gln-Asp-Gln-Ala-Arg-Leu-Asn-Ser-Trp-Gly-Cys*-Ala-Phe-Arg-Gln-Val-Cys*-NH2 [Peptide 41-2-3GC]
Reactivity in EIA (Antibodies to HIV-2; HIV-2 positive serum F504282 (A), 1:5): 3.000
Reactivity in EIA (Antibodies to HIV-2; HIV-2 positive serum F504282 (A), 1:10): 3.000
Reactivity in EIA (Antibodies to HIV-2; HIV-2 positive serum F504282 (A), 1:20): 3.000
Reactivity in EIA (Antibodies to HIV-2; HIV-2 positive serum F504282 (A), 1:40): 2.828
Reactivity in EIA (Antibodies to HIV-2; HIV-2 positive serum F504282 (A), 1:80): 2.107
Reactivity in EIA (Antibodies to HIV-2; HIV-2 positive serum F504282 (A), 1:160): 1.441
Reactivity in EIA (Antibodies to HIV-2; HIV-2 positive serum F504282 (A), 1:320): 0.941
Reactivity in EIA (Antibodies to HIV-2; HIV-2 positive serum F504282 (A), 1:640): 0.588
Reactivity in EIA (Antibodies to HIV-2; HIV-2 positive serum F504282 (A), 1:1280): 0.302
Reactivity in EIA (Antibodies to HIV-2; HIV-2 positive serum F504282 (A), 1:2560): 0.180
Reactivity in EIA (Antibodies to HIV-2; HIV-2 positive serum F504282 (A), Neat): 3.000
Reactivity in EIA (Antibodies to HIV-2; HIV-2 positive serum GOM (B), 1:2): 3.000
Reactivity in EIA (Antibodies to HIV-2; HIV-2 positive serum GOM (B), 1:4): 3.000
Reactivity in EIA (Antibodies to HIV-2; HIV-2 positive serum GOM (B), 1:8): 3.000
Reactivity in EIA (Antibodies to HIV-2; HIV-2 positive serum GOM (B), 1:16): 3.000
Reactivity in EIA (Antibodies to HIV-2; HIV-2 positive serum GOM (B), 1:32): 3.000
Reactivity in EIA (Antibodies to HIV-2; HIV-2 positive serum GOM (B), 1:64): 2.524
Reactivity in EIA (Antibodies to HIV-2; HIV-2 positive serum GOM (B), 1:128): 2.202
Reactivity in EIA (Antibodies to HIV-2; HIV-2 positive serum GOM (B), 1:256): 1.452
Reactivity in EIA (Antibodies to HIV-2; HIV-2 positive serum GOM (B), 1:512): 0.811
Reactivity in EIA (Antibodies to HIV-2; HIV-2 positive serum GOM (B), 1:1024): 0.571
Reactivity in EIA (Antibodies to HIV-2; HIV-2 serum PIN, 1:2): 3.000
Reactivity in EIA (Antibodies to HIV-2; HIV-2 serum PIN, 1:4): 3.000
Reactivity in EIA (Antibodies to HIV-2; HIV-2 serum PIN, 1:8): 2.596
Reactivity in EIA (Antibodies to HIV-2; HIV-2 serum PIN, 1:16): 1.940
Reactivity in EIA (Antibodies to HIV-2; HIV-2 serum PIN, 1:32): 1.209
Reactivity in EIA (Antibodies to HIV-2; HIV-2 serum PIN, 1:64): 0.582
Reactivity in EIA (Antibodies to HIV-2; HIV-2 serum PIN, 1:128): 0.368
Reactivity in EIA (Antibodies to HIV-2; HIV-2 serum PIN, 1:256): 0.186
Reactivity in EIA (Antibodies to HIV-2; HIV-2 serum S, 1:2): 3.000
Reactivity in EIA (Antibodies to HIV-2; HIV-2 serum S, 1:4): 3.000
Reactivity in EIA (Antibodies to HIV-2; HIV-2 serum S, 1:8): 3.000
Reactivity in EIA (Antibodies to HIV-2; HIV-2 serum S, 1:16): 3.000
Reactivity in EIA (Antibodies to HIV-2; HIV-2 serum S, 1:32): 2.632
Reactivity in EIA (Antibodies to HIV-2; HIV-2 serum S, 1:64): 2.155
Reactivity in EIA (Antibodies to HIV-2; HIV-2 serum S, 1:128): 1.442
Reactivity in EIA (Antibodies to HIV-2; HIV-2 serum S, 1:256): 0.725
Reactivity in EIA (Antibodies to HIV-2; HIV-2 serum S, 1:512): 0.516
Reactivity in EIA (Antibodies to HIV-2; HIV-2 serum SAMB, 1:2): 3.000
Reactivity in EIA (Antibodies to HIV-2; HIV-2 serum SAMB, 1:4): 3.000
Reactivity in EIA (Antibodies to HIV-2; HIV-2 serum SAMB, 1:8): 2.854
Reactivity in EIA (Antibodies to HIV-2; HIV-2 serum SAMB, 1:16): 2.710
Reactivity in EIA (Antibodies to HIV-2; HIV-2 serum SAMB, 1:32): 2.112
Reactivity in EIA (Antibodies to HIV-2; HIV-2 serum SAMB, 1:64): 1.400
Reactivity in EIA (Antibodies to HIV-2; HIV-2 serum SAMB, 1:128): 0.834
Reactivity in EIA (Antibodies to HIV-2; HIV-2 serum SAMB, 1:256): 0.404

H-CGG-QNRRGLDLLFWEQGGLC*KALQEQC*-NH2 (chain 1 H-CGGQNRRGLDLLFWEQGGLC; chain 2 KALQEQC-NH2; not fully specified; cysteine pairing not given here) [Peptide 121-1GC1]
Reactivity with deprotected peptide (color grade) ([1]; Sample No. 39266): trace
Reactivity with deprotected peptide (color grade) ([1]; Sample No. 89232): trace
Reactivity with deprotected peptide (color grade) ([1]; Sample No. 89379): trace
Reactivity with deprotected peptide (color grade) ([1]; Sample No. 89430): trace
Reactivity with deprotected peptide (color grade) ([1]; Sample No. 89442): trace
result on serum panel of suspected HTLV-I/II positive individuals ([1]; compared with RIP, Western blot and commercial HTLV-I EIA): Some samples which were purportedly positive by certain of the tests were negative

H-QNRRGLDLLFWEQGGLC*KALQEQC*-NH2 (chain 1 H-QNRRGLDLLFWEQGGL[Cys∗]; chain 2 KALQEQ[Cys∗]-NH2; not fully specified; reading uncertain; also: modified residues) [Peptide 121-1G1]
Reactivity to Antibodies to HTLV-I (color grade) (Antibodies to HTLV-I): trace
